Source: ChEMBL document CHEMBL1201862, “PubChem BioAssay data set” (2004)
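How tested: cells in 96-well plates exposed to compound for 48 hours at five concentrations. Here, GI50 denotes the concentration required for 50% inhibition of growth.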 Activity calls are given as the source filed them. Rule as the data show it: active = GI50 up to about 1.1 µM and inactive = higher.

Key:
Experiment in all cases: growth of human tumour cells (NCI), 48 h
[1] = test system: 786-0
[2] = test system: A498
[3] = test system: A549
[4] = test system: ACHN
[5] = test system: BT-549
[6] = test system: CAKI-1
[7] = test system: CCRF-CEM
[8] = test system: COLO 205
[9] = test system: DU-145
[10] = test system: EKVX
[11] = test system: HCC 2998
[12] = test system: HCT-116
[13] = test system: HCT-15
[14] = test system: HL-60
[15] = test system: HOP-62
[16] = test system: HOP-92
[17] = test system: HT-29
[18] = test system: Hs-578T
[19] = test system: IGROV-1
[20] = test system: K562
[21] = test system: KM12
[22] = test system: LOX IMVI
[23] = test system: M14
[24] = test system: MCF7
[25] = test system: MDA-MB-231
[26] = test system: MDA-MB-435
[27] = test system: MDA-N
[28] = test system: MOLT-4
[29] = test system: Malme-3M
[30] = test system: NCI-H226
[31] = test system: NCI-H23
[32] = test system: NCI-H460
[33] = test system: NCI-H522
[34] = test system: NCI/ADR-RES
[35] = test system: OVCAR-3
[36] = test system: OVCAR-4
[37] = test system: OVCAR-5
[38] = test system: OVCAR-8
[39] = test system: PC-3
[40] = test system: RPMI-8226
[41] = test system: RXF 393
[42] = test system: SF-268
[43] = test system: SF-295
[44] = test system: SF-539
[45] = test system: SK-MEL-28
[46] = test system: SK-MEL-2
[47] = test system: SK-MEL-5
[48] = test system: SK-OV-3
[49] = test system: SN12C
[50] = test system: SNB-19
[51] = test system: SNB-75
[52] = test system: SR
[53] = test system: SW-620
[54] = test system: T47D
[55] = test system: TK-10
[56] = test system: U-251
[57] = test system: UACC-257
[58] = test system: UACC-62
[59] = test system: UO-31

`CC(=O)C1=C(C)N(c2ccccc2)C2(O)C3=C(C(=O)c4ccccc4C3=O)C(O)=CC12Cl` (centres undefined) was tested, and the GI50 [1] was 4.63 µM (inactive), the GI50 [2] was 13 µM (inactive) and the GI50 [3] was 7.29 µM (inactive). For the same compound, the GI50 [4] was 5.11 µM (inactive), the GI50 [5] was 8.11 µM (inactive) and the GI50 [6] was 4.05 µM (inactive). For the same compound, the GI50 [7] was 650 nM (active), the GI50 [8] was 5.21 µM (inactive) and the GI50 [9] was 11.2 µM (inactive). For the same compound, the GI50 [10] was 8.51 µM (inactive), the GI50 [11] was 4.63 µM (inactive) and the GI50 [12] was 5.96 µM (inactive). For the same compound, the GI50 [13] was 3.73 µM, the GI50 [14] was 2.9 µM (inactive) and the GI50 [15] was 17.2 µM (inactive). For the same compound, the GI50 [16] was 7.08 µM (inactive), the GI50 [17] was 3.1 µM (inactive) and the GI50 [18] was 4.01 µM (inactive). For the same compound, the GI50 [19] was 2.71 µM (inactive), the GI50 [20] was 6.04 µM (inactive) and the GI50 [21] was 4.17 µM (inactive). The GI50 [22] was 3.56 µM (inactive), the GI50 [23] was 7.03 µM (inactive) and the GI50 [24] was 3.61 µM (inactive). The GI50 [25] was 10.7 µM (inactive), the GI50 [26] was 2.32 µM (inactive) and the GI50 [27] was 2.94 µM (inactive). For the same compound, the GI50 [28] was 3.13 µM (inactive), the GI50 [29] was 1.88 µM (inactive) and the GI50 [30] was 21.4 µM (inactive). For the same compound, the GI50 [31] was 6.55 µM (inactive), the GI50 [32] was 5.26 µM (inactive) and the GI50 [33] was 2.55 µM (inactive). The GI50 [34] was 3.73 µM (inactive), the GI50 [35] was 4.2 µM (inactive) and the GI50 [36] was 3.08 µM (inactive). The GI50 [37] was 20 µM (inactive), the GI50 [38] was 4.08 µM (inactive) and the GI50 [39] was 7.28 µM (inactive). For the same compound, the GI50 [40] was 855 nM (active), the GI50 [41] was 5.85 µM (inactive) and the GI50 [42] was 6.73 µM (inactive). The GI50 [43] was 11.1 µM (inactive), the GI50 [44] was 4.09 µM (inactive) and the GI50 [45] was 6.73 µM (inactive). For the same compound, the GI50 [46] was 5.07 µM (inactive), the GI50 [47] was 2.91 µM (inactive) and the GI50 [48] was 49.7 µM (inactive). The GI50 [49] was 4.46 µM (inactive), the GI50 [50] was 5.36 µM (inactive) and the GI50 [51] was 4.28 µM (inactive). For the same compound, the GI50 [52] was 2.42 µM (inactive), the GI50 [53] was 3.89 µM (inactive) and the GI50 [54] was 35.2 µM (inactive). The GI50 [55] was 14.4 µM (inactive), the GI50 [56] was 4.76 µM (inactive) and the GI50 [57] was 4.71 µM (inactive). For the same compound, the GI50 [58] was 13 µM (inactive) and the GI50 [59] was 5.07 µM (inactive).
